Where a SMILES comes first, the peptide text is derived from it. Where no end group is shown, it is not given here. The star is where a group is joined. For = O=C*
Test system: differentiated HL-60 cells
Format: cell-based, human
Settings: 72 h
Method: HEK-293 cells (American Type Culture Collection, Manassas, VA, USA) were maintained in DMEM (Thermo Fisher Scientific, Waltham, MA, USA) containing 10% FBS (Thermo Fisher Scientific) in a humidified atmosphere at 5% CO2 and 37 °C. Human acute leukemia-derived HL-60 cells (RIKEN Cell Bank, Ibaraki, Japan) were cultured in RPMI-1640 medium (Thermo Fisher Scientific) containing 10% FBS in a humidified atmosphere at 5% CO2 and 37 °C. HL-60 cells were treated with 500 μM dibutyryl-cAMP (Sigma-Aldrich, St. Louis, MO, USA) for 72 h to differentiate the cells into neutrophilic/granulocytic cells as described elsewhere. The ability of MCT-2-related peptides to activate HL-60 cells differentiated into neutrophilic/granulocytic cells was evaluated by stimulation of β-hexosaminidase secretion from the cells. Briefly, differentiated HL-60 cells were washed 3 times with ice-cold HEPES-buffered Hank’s solution (HBHS; 10 mM HEPES, 136.9 mM NaCl, 5.4 mM KCl, 1.2 mM CaCl2, 0.44 mM KH2PO4, 0.49 mM MgCl2, 0.41 mM MgSO4, 0.34 mM Na2HPO4, 5.5 mM glucose, 4.2 mM NaHCO3, and 0.1% BSA, pH 7.4). The cells were resuspended in HBHS at a density of 5.6 × 10^6 cells/mL, and DNase I (Sigma-Aldrich) and cytochalasin B (Sigma-Aldrich) were each added at a final concentration of 5 μg/mL. The cell suspension in each tube (5.0 × 10^5 cells/90 μL) was preincubated at 37 °C for 10 min and stimulated with 10 μL synthetic peptide solution at 37 °C for 10 min. The inhibitory effects of inhibitors against FPR1 [CysH (Sigma-Aldrich)] and FPR2 [PBP10 (Tocris Bioscience, Bristol, UK)] on β-hexosaminidase release induced by MCT-2 and its derivatives were also evaluated in the differentiated HL-60 cells; each cell suspension prepared as above (90 μL) was transferred to a tube (5.0 × 10^5 cells/tube) with 5 μL inhibitor solution for FPR1 (CysH) or FPR2 (PBP10). Each tube was then preincubated at 37 °C for 10 min and stimulated with 5 μL synthetic peptide solution at 37 °C for 10 min. After stimulation, 200 μL ice-cold reaction quenching buffer (25 mM Tris, 123 mM NaCl, and 2.7 mM KCl, pH 7.4) was added to each cell suspension to stop the reaction. Thereafter, these tubes were centrifuged at 4 °C and 2300× g for 1 min, and each supernatant was transferred into a new tube. β-Hexosaminidase activity in the supernatant was measured as described previously. Briefly, 90 μL supernatant was transferred to each well of a 96-well microtiter plate, and 60 μL of a substrate solution for β-hexosaminidase [10 mM p-nitrophenyl N-acetyl-β-D-glucosaminide (Sigma-Aldrich), 40 mM citrate, and 70 mM NaHPO4, pH 4.5] was added to initiate the enzyme reaction. After incubation of the plate at 37 °C for 1 h, 100 μL of 400 mM glycine (pH 10.7) was added to stop the reaction. The absorbance at 415 nm for the resulting p-nitrophenol and at 490 nm for the reference was measured using a microtiter plate reader (Viento XS; BioTek Instruments, Winooski, VT, USA). The ability of each peptide to induce β-hexosaminidase release was expressed as a percentage of enzyme secretion promoted by 10 μM MCT-2(1–15) that induced the maximum response for the elucidation of full or partial agonists to the activity of MCT-2(1–15) (Figure 2 and Figure 4, Table 2) or a percentage of the total enzyme activity, which was the enzyme activity released after disruption of the cells with 0.05% Triton X-100 (Figure 3).

Compound | EC50 [µM]
CC[C@H](C)[C@H](NC(=O)[C@H](CCCCN)NC(=O)[C@H](CCCNC(=N)N)NC(=O)[C@H](CCSC)NC(=O)[C@@H]1CCCN1C(=O)[C@@H](NC(=O)[C@H](CCSC)NC=O)[C@@H](C)O)C(=O)O [MCT-2(1–7)] (For-MTPMRKI-OH) | 35.5
CC[C@H](C)[C@H](NC(=O)[C@H](CC(C)C)NC(=O)[C@H](CCCCN)NC(=O)[C@H](CCSC)NC(=O)[C@H](CC(C)C)NC(=O)[C@@H]1CCCN1C(=O)[C@H](CC(N)=O)NC(=O)[C@@H](NC(=O)[C@H](CCCCN)NC(=O)[C@H](CCCNC(=N)N)NC(=O)[C@H](C)NC(=O)[C@@H]1CCCN1C(=O)[C@@H](NC(=O)[C@H](CCSC)NC=O)[C@@H](C)O)[C@@H](C)CC)C(=O)N[C@@H](CC(N)=O)C(=O)O [[Ala^4]MCT-2] (For-MTPARKINPLMKLIN-OH) | 0.068 ± 0.00265
CC[C@H](C)[C@H](NC(=O)[C@H](C)NC(=O)[C@H](CCCCN)NC(=O)[C@H](CCSC)NC(=O)[C@H](CC(C)C)NC(=O)[C@@H]1CCCN1C(=O)[C@H](CC(N)=O)NC(=O)[C@@H](NC(=O)[C@H](CCCCN)NC(=O)[C@H](CCCNC(=N)N)NC(=O)[C@H](CCSC)NC(=O)[C@@H]1CCCN1C(=O)[C@@H](NC(=O)[C@H](CCSC)NC=O)[C@@H](C)O)[C@@H](C)CC)C(=O)N[C@@H](CC(N)=O)C(=O)O [[Ala^13]MCT-2] (For-MTPMRKINPLMKAIN-OH) | 0.0837 ± 0.00354
CC[C@H](C)[C@H](NC(=O)[C@H](C)NC(=O)[C@H](CCCNC(=N)N)NC(=O)[C@H](CCSC)NC(=O)[C@@H]1CCCN1C(=O)[C@@H](NC(=O)[C@H](CCSC)NC=O)[C@@H](C)O)C(=O)N[C@@H](CC(N)=O)C(=O)N1CCC[C@H]1C(=O)N[C@@H](CC(C)C)C(=O)N[C@@H](CCSC)C(=O)N[C@@H](CCCCN)C(=O)N[C@@H](CC(C)C)C(=O)N[C@H](C(=O)N[C@@H](CC(N)=O)C(=O)O)[C@@H](C)CC [[Ala^6]MCT-2] (For-MTPMRAINPLMKLIN-OH) | 0.064 ± 0.003
CC[C@H](C)[C@H](NC(=O)[C@H](CC(C)C)NC(=O)[C@H](CCCCN)NC(=O)[C@H](CCSC)NC(=O)[C@H](CC(C)C)NC(=O)[C@@H]1CCCN1C(=O)[C@H](CC(N)=O)NC(=O)[C@@H](NC(=O)[C@H](CCCCN)NC(=O)[C@H](CCCNC(=N)N)NC(=O)[C@H](CCSC)NC(=O)[C@@H]1CCCN1C(=O)[C@@H](NC(=O)[C@H](CCSC)NC=O)[C@@H](C)O)[C@@H](C)CC)C(=O)N[C@@H](C)C(=O)O [[Ala^15]MCT-2] (For-MTPMRKINPLMKLIA-OH) | 0.0293 ± 0.00149
CC[C@H](C)[C@H](NC(=O)[C@H](CCCCN)NC(=O)[C@H](CCCNC(=N)N)NC(=O)[C@H](CCSC)NC(=O)[C@@H]1CCCN1C(=O)[C@@H](NC(=O)[C@H](CCSC)NC=O)[C@@H](C)O)C(=O)N[C@@H](CC(N)=O)C(=O)O [MCT-2(1–8)] (For-MTPMRKIN-OH) | 41.3
CC[C@H](C)[C@H](NC(=O)[C@H](CC(C)C)NC(=O)[C@H](CCCCN)NC(=O)[C@H](CCSC)NC(=O)[C@H](CC(C)C)NC(=O)[C@@H]1CCCN1C(=O)[C@H](CC(N)=O)NC(=O)[C@@H](NC(=O)[C@H](CCCCN)NC(=O)[C@H](CCCNC(=N)N)NC(=O)[C@H](CCSC)NC(=O)[C@@H]1CCCN1C(=O)[C@@H](NC(=O)[C@H](CCSC)NC=O)[C@@H](C)O)[C@@H](C)CC)C(=O)O [MCT-2(1–14)] (For-MTPMRKINPLMKLI-OH) | 0.0967 ± 0.0176
CC[C@H](C)[C@H](NC(=O)[C@H](CC(C)C)NC(=O)[C@H](CCCCN)NC(=O)[C@H](CCSC)NC(=O)[C@H](CC(C)C)NC(=O)[C@@H]1CCCN1C(=O)[C@H](CC(N)=O)NC(=O)[C@@H](NC(=O)[C@H](CCCCN)NC(=O)[C@H](C)NC(=O)[C@H](CCSC)NC(=O)[C@@H]1CCCN1C(=O)[C@@H](NC(=O)[C@H](CCSC)NC=O)[C@@H](C)O)[C@@H](C)CC)C(=O)N[C@@H](CC(N)=O)C(=O)O [[Ala^5]MCT-2] (For-MTPMAKINPLMKLIN-OH) | 0.0613 ± 0.00058
MTPMRKINPLMKLIN [Des-N-formyl MCT-2] | > 1000
CC[C@H](C)[C@H](NC(=O)[C@H](CC(C)C)NC(=O)[C@H](CCCCN)NC(=O)[C@H](CCSC)NC(=O)[C@H](CC(C)C)NC(=O)[C@@H]1CCCN1C(=O)[C@H](CC(N)=O)NC(=O)[C@@H](NC(=O)[C@H](CCCCN)NC(=O)[C@H](CCCNC(=N)N)NC(=O)[C@H](CCSC)NC(=O)[C@@H]1CCCN1C(=O)[C@H](C)NC(=O)[C@H](CCSC)NC=O)[C@@H](C)CC)C(=O)N[C@@H](CC(N)=O)C(=O)O [[Ala^2]MCT-2] (For-MAPMRKINPLMKLIN-OH) | 0.00061 ± 7e-05
CC[C@H](C)[C@H](NC(=O)[C@H](CCCCN)NC(=O)[C@H](CCCNC(=N)N)NC(=O)[C@H](CCSC)NC(=O)[C@@H]1CCCN1C(=O)[C@@H](NC(=O)[C@H](CCSC)NC=O)[C@@H](C)O)C(=O)N[C@@H](CC(N)=O)C(=O)N1CCC[C@H]1C(=O)O [MCT-2(1–9)] (For-MTPMRKINP-OH) | 10.8
CC[C@H](C)[C@H](NC(=O)[C@H](CCCCN)NC(=O)[C@H](CCCNC(=N)N)NC(=O)[C@H](CCSC)NC(=O)[C@@H]1CCCN1C(=O)[C@@H](NC(=O)[C@H](CCSC)NC=O)[C@@H](C)O)C(=O)N[C@@H](CC(N)=O)C(=O)N1CCC[C@H]1C(=O)N[C@@H](CC(C)C)C(=O)N[C@@H](CCSC)C(=O)N[C@@H](CCCCN)C(=O)N[C@@H](CC(C)C)C(=O)N[C@@H](C)C(=O)N[C@@H](CC(N)=O)C(=O)O [[Ala^14]MCT-2] (For-MTPMRKINPLMKLAN-OH) | 0.0767 ± 0.0119
CC[C@H](C)[C@H](NC(=O)[C@H](CCCCN)NC(=O)[C@H](CCCNC(=N)N)NC(=O)[C@H](CCSC)NC(=O)[C@@H]1CCCN1C(=O)[C@@H](NC(=O)[C@H](CCSC)NC=O)[C@@H](C)O)C(=O)N[C@@H](C)C(=O)N1CCC[C@H]1C(=O)N[C@@H](CC(C)C)C(=O)N[C@@H](CCSC)C(=O)N[C@@H](CCCCN)C(=O)N[C@@H](CC(C)C)C(=O)N[C@H](C(=O)N[C@@H](CC(N)=O)C(=O)O)[C@@H](C)CC [[Ala^8]MCT-2] (For-MTPMRKIAPLMKLIN-OH) | 0.031 ± 0.00397
CC[C@H](C)[C@H](NC(=O)[C@H](CCCCN)NC(=O)[C@H](CCCNC(=N)N)NC(=O)[C@H](CCSC)NC(=O)[C@@H]1CCCN1C(=O)[C@@H](NC(=O)[C@H](CCSC)NC=O)[C@@H](C)O)C(=O)N[C@@H](CC(N)=O)C(=O)N1CCC[C@H]1C(=O)N[C@@H](CC(C)C)C(=O)N[C@@H](CCSC)C(=O)N[C@@H](CCCCN)C(=O)O [MCT-2(1–12)] (For-MTPMRKINPLMK-OH) | 0.633 ± 0.153
CC[C@H](C)[C@H](NC(=O)[C@H](CC(C)C)NC(=O)[C@H](C)NC(=O)[C@H](CCSC)NC(=O)[C@H](CC(C)C)NC(=O)[C@@H]1CCCN1C(=O)[C@H](CC(N)=O)NC(=O)[C@@H](NC(=O)[C@H](CCCCN)NC(=O)[C@H](CCCNC(=N)N)NC(=O)[C@H](CCSC)NC(=O)[C@@H]1CCCN1C(=O)[C@@H](NC(=O)[C@H](CCSC)NC=O)[C@@H](C)O)[C@@H](C)CC)C(=O)N[C@@H](CC(N)=O)C(=O)O [[Ala^12]MCT-2] (For-MTPMRKINPLMALIN-OH) | 0.0123 ± 0.00029
CC[C@H](C)[C@H](NC(=O)[C@H](CC(C)C)NC(=O)[C@H](CCCCN)NC(=O)[C@H](C)NC(=O)[C@H](CC(C)C)NC(=O)[C@@H]1CCCN1C(=O)[C@H](CC(N)=O)NC(=O)[C@@H](NC(=O)[C@H](CCCCN)NC(=O)[C@H](CCCNC(=N)N)NC(=O)[C@H](CCSC)NC(=O)[C@@H]1CCCN1C(=O)[C@@H](NC(=O)[C@H](CCSC)NC=O)[C@@H](C)O)[C@@H](C)CC)C(=O)N[C@@H](CC(N)=O)C(=O)O [[Ala^11]MCT-2] (For-MTPMRKINPLAKLIN-OH) | 0.0367 ± 0.011
CC[C@H](C)[C@H](NC(=O)[C@H](CC(C)C)NC(=O)[C@H](CCCCN)NC(=O)[C@H](CCSC)NC(=O)[C@H](CC(C)C)NC(=O)[C@@H]1CCCN1C(=O)[C@H](CC(N)=O)NC(=O)[C@@H](NC(=O)[C@H](CCCCN)NC(=O)[C@H](CCCNC(=N)N)NC(=O)[C@H](CCSC)NC(=O)[C@@H]1CCCN1C(=O)[C@@H](NC(=O)[C@H](C)NC=O)[C@@H](C)O)[C@@H](C)CC)C(=O)N[C@@H](CC(N)=O)C(=O)O [[Ala^1]MCT-2] (For-ATPMRKINPLMKLIN-OH) | > 10

Source: article PMC8071274 (International Journal of Molecular Sciences, 2021)
